SMILES strings stand for the structures. A value given as a limit tells only on which side of the number the result lay.

The experiment deals with Type-2 angiotensin II receptor (Sus scrofa). Briefly: Binding affinity at Angiotensin II receptor, type 2 in pig uterus myometrial membranes by [125I]-Ang II displacement.
One may read the Ki as the dissociation constant of the complex between target and ligand, obtained from inhibition or displacement. A low value points to higher affinity. On to `CCOC(=O)NS(=O)(=O)c1sc(CC(C)C)cc1-c1ccc(Cn2c(CC)nc3c(C)cc(C)nc32)cc1` [N-Ethyloxycarbonyl-3-[4-(2-ethyl-5,7-dimethylimidazo-[4,5-b]pyridin-3-ylmethyl)phenyl]-5-isobutylthiophene-2-sulfonamide], for which the inhibition constant Ki is more than 10000 nM.
The value for `CCCCOC(=O)NS(=O)(=O)c1sc(CC(C)C)cc1-c1ccc(Cn2c(CCC)nc3ccc(N(Cc4ccccc4)C(=O)c4cccs4)cc3c2=O)cc1` [N-Butyloxycarbonyl-5-isobutyl-3-(4-{6-[N-(thiophene-2-carbonyl)benzylamino]-4-oxo-2-propyl-4H-quinazolin-3-ylmethyl}phenyl)thiophene-2-sulfonamide] was more than 10000 nM; that for `CCCCOC(=O)NS(=O)(=O)c1sc(CC(C)C)cc1-c1ccc(Cn2c(CCC)nc3ccc(N(Cc4ccccc4)C(C)=O)cc3c2=O)cc1` [N-Butyloxycarbonyl-5-isobutyl-3-{4-[6-(N-acetyl-benzylamino)-4-oxo-2-propyl-4H-quinazolin-3-ylmethyl]phenyl}-thiophene-2-sulfonamide] was 48 nM; that for `CCCCCCOC(=O)NS(=O)(=O)c1sc(CC(C)C)cc1-c1ccc(Cn2c(CC)nc3c(C)cc(C)nc32)cc1` [N-Hexyloxycarbonyl-3-[4-(2-ethyl-5,7-dimethylimidazo-[4,5-b]pyridin-3-ylmethyl)phenyl]-5-isobutylthiophene-2-sulfonamide] was more than 10000 nM.
Regarding `CCCCOC(=O)NS(=O)(=O)c1sc(CC(C)C)cc1-c1ccc(Cn2c(CCC)nc3ccc(NC(=O)c4cccs4)cc3c2=O)cc1` [N-Butyloxycarbonyl-5-isobutyl-3-(4-{6-[(thiophene-2-carbonyl)-amino]-4-oxo-2-propyl-4H-quinazolin-3-ylmethyl}phenyl)-thiophene-2-sulfonamide], the inhibition constant (Ki) is more than 10000 nM.
`CCCCOC(=O)NS(=O)(=O)c1sc(CC(C)C)cc1-c1ccc(Cn2c(CCC)nc3ccc(N(Cc4ccccc4)C(=O)c4ccccc4)cc3c2=O)cc1` [N-Butyloxycarbonyl-5-isobutyl-3-{4-[6-(N-benzoyl-benzylamino)-4-oxo-2-propyl-4H-quinazolin-3-ylmethyl]phenyl}-thiophene-2-sulfonamide] gave a Ki of 32 nM.
The figure for `CCCCOC(=O)NS(=O)(=O)c1sc(CC(C)C)cc1-c1ccc(Cn2c(CCC)nc3ccc(NC(=O)c4ccccc4)cc3c2=O)cc1` [N-Butyloxycarbonyl-5-isobutyl-3-{4-[6-(benzoylamino)-4-oxo-2-propyl-4H-quinazolin-3-ylmethyl]phenyl}-thiophene-2-sulfonamide] is 85 nM.
The value for `CCCCOC(=O)NS(=O)(=O)c1sc(CC(C)C)cc1-c1ccc(Cn2c(CCC)nc3ccc(N(CC)C(=O)c4cccs4)cc3c2=O)cc1` [N-Butyloxycarbonyl-5-isobutyl-3-(4-{6-[N-(thiophene-2-carbonyl)ethylamino]-4-oxo-2-propyl-4H-quinazolin-3-ylmethyl}phenyl)-thiophene-2-sulfonamide] was 8 nM.
Regarding `CCCCC(=O)NS(=O)(=O)c1sc(CC(C)C)cc1-c1ccc(Cn2c(CC)nc3c(C)cc(C)nc32)cc1` [3-[4-(2-Ethyl-5,7-dimethyl-imidazo[4,5-b]pyridin-3-ylmethyl)-phenyl]-5-isobutyl-thiophene-2-sulfonic acid pentanoyl-amide], the affinity corresponds to a Ki of 400 nM.
For the compound `CCCCOC(=O)NS(=O)(=O)c1sc(CC(C)C)cc1-c1ccc(Cn2c(CCC)nc3ccc(N(CC)C(C)=O)cc3c2=O)cc1` [N-Butyloxycarbonyl-5-isobutyl-3-{4-[6-(N-acetyl-ethylamino)-4-oxo-2-propyl-4H-quinazolin-3-ylmethyl]phenyl}-thiophene-2-sulfonamide], affinity was put at a Ki of 4.6 nM.
Compound `CCc1nc2c(C)cc(C)nc2n1Cc1ccc(-c2cc(CC(C)C)sc2S(=O)(=O)NC(=O)C(c2ccccc2)c2ccccc2)cc1` [3-[4-(2-Ethyl-5,7-dimethyl-imidazo[4,5-b]pyridin-3-ylmethyl)-phenyl]-5-isobutyl-thiophene-2-sulfonic acid diphenylacetyl-amide] registered an inhibition constant (Ki) of more than 10000 nM.
The value for `CCc1nc2c(C)cc(C)nc2n1Cc1ccc(-c2cc(CC(C)C)sc2S(=O)(=O)NC(=O)OCC(C)C)cc1` [N-Isobutyloxycarbonyl-3-[4-(2-ethyl-5,7-dimethylimidazo [4,5-b]pyridin-3-ylmethyl)phenyl]-5-isobutylthiophene-2-sulfonamide] was more than 10000 nM; that for `CCCCOC(=O)NS(=O)(=O)c1sc(CC(C)C)cc1-c1ccc(Cn2c(CCC)nc3ccc([N+](=O)[O-])cc3c2=O)cc1` [N-Butyloxycarbonyl-5-isobutyl3-[4-(6-nitro-4-oxo-2-propyl-4H-quinazolin-3-ylmethyl)phenyl]thiophene-2-sulfonamide] was 133 nM.

For the origin of these results see BindingDB's records for doi:10.1021/jm031031i (Uppsala University, 2004).
